The experiment deals with MDA-MB-435 human carcinoma cells. The experiment in a line: Intracellular drug delivery of DOX (fluorescence microscopy). The format is cell-based. Particulars: after 30 min of incubation. As for the experimental part: For in vitro studies, MDA-MB-435 human carcinoma cells were maintained in Dulbecco's Modified Eagle's Medium (DMEM) supplemented with 10% fetal bovine serum (FBS) and 100 μg/ml penicillin-streptomycin. For fluorescence microscopy, the cells (3000 cells per well) were seeded into 8-well chamber slides (Lab-Tek) overnight. The cells were then incubated with 50 μg of MHN or F3-MHN per well for 2 h (for intracellular targeting) and 50 μg of DOX-loaded F3-MHN (0.093 mg DOX per mg MHN) or 4.5 μg of free DOX (equivalent with DOX amount for DOX-loaded F3-MHN) physically mixed with 50 μg of F3-MHN per well for 30 min, 2 h, and 24 h (for intracellular drug delivery) at 37° C. in the presence of 10% FBS. For the intracellular targeting study, the cells were observed without any fixation using an inverted fluorescence microscope (Nikon, Tokyo, Japan). For the intracellular drug delivery study, the cells were fixed with 4% paraformaldehyde for 20 min, mounted in Vectashield Mounting Medium with 4′,6-diamidino-2-phenylindole (DAPI; Vector Laboratories, Burlingame, Calif.), and observed with a fluorescence microscope. […]

Turning to `COc1cccc2c1C(=O)c1c(O)c3c(c(O)c1C2=O)C[C@@](O)(C(=O)CO)C[C@@H]3O[C@H]1C[C@H](N)[C@H](O)[C@H](C)O1` [free DOX, doxorubicin], the “Location of DOX fluorescence signal in cells” value was “almost all of the DOX fluorescence signal was observed in the cell nuclei”.

Source of the values: US20120059240A1, “METHOD FOR PREPARATION OF MICELLAR HYBRID NANOPARTICLES FOR THERAPEUTIC AND DIAGNOSTIC APPLICATIONS AND COMPOSITIONS THEREOF” (MASSACHUSETTS INSTITUTE OF TECHNOLOGY, priority 2008, published 2012).
